Reference: patent US12636274B2, “Pharmaceutical compositions and methods for systemic treatment of solid tumors” (7 HILLS INTERESTS LLC, priority 2014, dated 2026)

Assays:
[1] = molecular target: α1b1/Collagen IV (Homo sapiens, UniProt P05556+P56199); assay: Integrin activation, adhesion α1b1/Collagen IV; type: cell-based; set-up: key: Not Active: Not active: ≤2 fold increase in adhesion; settings: 50% serum; n = 3
From the text: (§1) Activating all integrins is necessary for firm endothelial cell adhesion for extravasation.

[2] = molecular target: aiibb3/Fibrinogen (Homo sapiens, UniProt P05106+P08514); assay: Integrin activation, adhesion aiibb3/Fibrinogen; type: cell-based; set-up: key: Not Active: Not active: ≤2 fold increase in adhesion; settings: 50% serum; n = 3
From the text: as §1

[3] = test system: ICAM-1; assay: Cell migration across ICAM-1 membrane toward SDF-1; type: cell-based; settings: FIG. 5; different concentrations; SDF-1 in bottom part
Description: Referring now to FIG. 5, an apparatus for testing VCAM-1 and ICAM-1 cell migration, where the cells are initially placed in the top part of the apparatus including a member including VCAM-1 or ICAM-1, with the bottom part of the apparatus initially including SDF-1. Cell migration is then measured from top part to the bottom part for different concentration of CDPD 1, a compound of Formula (I) of VCAM-1 and ICAM-1 impregnated membrane.

[4] = test system: CT26 colon cancer syngeneic tumor; assay: Study 3: CT26 syngeneic tumor model in Balb/c mice, treatment from +1 day after implantation; type: in vivo, Mouse (Mus musculus)
Description: Mouse colon carcinoma CT26 cells were obtained from American Type Culture Collection (ATCC), USA. Cells were grown in RPMI-1640 medium (Sigma, Cat # R6504) supplemented with 10% FBS (Invitrogen, Cat #10438-026), and 1% penicillin streptomycin (Thermo Fisher Scientific, Cat #15140-122). To establish allografts, 1 million CT26 cells were suspended in 50 μL of serum-free medium and mixed at 1:1 ratio with matrigel before implanting subcutaneously into the right flank of mice.
Prior to inoculation, the skin on the injection site was swabbed with alcohol. To establish allografts, CT26 cells were suspended in serum free medium at a concentration of (1×10^6)/50 μL, mixed with equal volume of matrigel (1:1 ratio) and 100 μL of this mixture was injected to each mouse by subcutaneous implantation using a 1 mL BD syringe attached to a 24 gauge needle.
CT26 tumor xenografts were measured after approximately 1 week of cell inoculation when they become palpable. When the average tumor volume reaches around 110 mm^3, animals were randomized into treatment groups group maintaining the average tumor volume of each group similar across groups for Study 1 and Study 2. In Study 3, the animals were randomized on the basis of body weights +1 day post cell implantation.
Tumor dimensions (length and breadth) were measured on days 0 (animal randomization based on tumor volume) and thrice weekly thereafter until study termination. Tumor volumes were calculated using the formula (b^2*l)*0.52 where l=length, b=breadth (Dusan Djokovic et al., BMC Cancer, 2010, 10:641). Tumor growth inhibition was calculated after normalizing the tumor volume on a given day to that on day 1.
Mean body weight loss and percent changes were calculated for each group. Similarly, mean tumor volume and percent tumor growth inhibition were calculated. The percent tumor growth inhibition (% TGI) as a function of anti-tumor efficacy were computed with respect to untreated vehicle control by comparing to the tumor volumes of day 1 using formula described below: % TGI=[1−(Treatment TVFinal−Treatment TVInitial)/(Control TVFinal−Control TVInitial)]*100
The test agent, Compound 1 was evaluated in CT26 syngeneic tumor model in Balb/c mice. Compound 1 was administered in mice +1 day after CT26 cell implantation. Tumors were not measurable at this time, however, tumors became palpable on day 7 and tumors were measured from that point.

Sequence of α1b1/Collagen IV (P56199 29-1179): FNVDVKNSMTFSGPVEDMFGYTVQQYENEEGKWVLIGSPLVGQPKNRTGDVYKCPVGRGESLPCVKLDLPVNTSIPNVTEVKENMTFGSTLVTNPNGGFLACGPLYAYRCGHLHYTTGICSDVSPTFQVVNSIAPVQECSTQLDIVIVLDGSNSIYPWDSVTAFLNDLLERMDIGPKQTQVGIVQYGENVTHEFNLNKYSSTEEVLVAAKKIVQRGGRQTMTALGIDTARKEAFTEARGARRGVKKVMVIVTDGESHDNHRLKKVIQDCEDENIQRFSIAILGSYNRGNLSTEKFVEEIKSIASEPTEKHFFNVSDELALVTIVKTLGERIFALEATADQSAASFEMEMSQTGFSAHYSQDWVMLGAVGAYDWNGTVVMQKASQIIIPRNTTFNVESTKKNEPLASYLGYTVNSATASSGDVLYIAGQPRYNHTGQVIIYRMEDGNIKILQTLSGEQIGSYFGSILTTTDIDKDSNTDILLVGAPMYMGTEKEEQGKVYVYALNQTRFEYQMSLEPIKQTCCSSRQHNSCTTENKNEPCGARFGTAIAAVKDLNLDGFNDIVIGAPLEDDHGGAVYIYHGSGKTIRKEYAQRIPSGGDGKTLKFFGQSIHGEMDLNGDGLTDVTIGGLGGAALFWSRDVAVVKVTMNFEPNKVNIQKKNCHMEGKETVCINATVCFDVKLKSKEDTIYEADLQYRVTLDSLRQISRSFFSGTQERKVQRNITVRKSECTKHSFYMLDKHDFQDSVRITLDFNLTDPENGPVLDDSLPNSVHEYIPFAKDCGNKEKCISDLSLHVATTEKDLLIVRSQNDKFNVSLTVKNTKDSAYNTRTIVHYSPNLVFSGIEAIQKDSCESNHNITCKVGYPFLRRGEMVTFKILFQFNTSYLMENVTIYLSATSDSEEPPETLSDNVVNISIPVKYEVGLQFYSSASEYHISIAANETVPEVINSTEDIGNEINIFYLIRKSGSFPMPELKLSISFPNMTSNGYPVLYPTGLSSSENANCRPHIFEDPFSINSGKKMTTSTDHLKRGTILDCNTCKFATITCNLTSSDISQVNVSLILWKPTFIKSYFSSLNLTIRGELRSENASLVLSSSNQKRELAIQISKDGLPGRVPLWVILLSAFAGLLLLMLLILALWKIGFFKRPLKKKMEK
Sequence of α1b1/Collagen IV (P05556 21-798): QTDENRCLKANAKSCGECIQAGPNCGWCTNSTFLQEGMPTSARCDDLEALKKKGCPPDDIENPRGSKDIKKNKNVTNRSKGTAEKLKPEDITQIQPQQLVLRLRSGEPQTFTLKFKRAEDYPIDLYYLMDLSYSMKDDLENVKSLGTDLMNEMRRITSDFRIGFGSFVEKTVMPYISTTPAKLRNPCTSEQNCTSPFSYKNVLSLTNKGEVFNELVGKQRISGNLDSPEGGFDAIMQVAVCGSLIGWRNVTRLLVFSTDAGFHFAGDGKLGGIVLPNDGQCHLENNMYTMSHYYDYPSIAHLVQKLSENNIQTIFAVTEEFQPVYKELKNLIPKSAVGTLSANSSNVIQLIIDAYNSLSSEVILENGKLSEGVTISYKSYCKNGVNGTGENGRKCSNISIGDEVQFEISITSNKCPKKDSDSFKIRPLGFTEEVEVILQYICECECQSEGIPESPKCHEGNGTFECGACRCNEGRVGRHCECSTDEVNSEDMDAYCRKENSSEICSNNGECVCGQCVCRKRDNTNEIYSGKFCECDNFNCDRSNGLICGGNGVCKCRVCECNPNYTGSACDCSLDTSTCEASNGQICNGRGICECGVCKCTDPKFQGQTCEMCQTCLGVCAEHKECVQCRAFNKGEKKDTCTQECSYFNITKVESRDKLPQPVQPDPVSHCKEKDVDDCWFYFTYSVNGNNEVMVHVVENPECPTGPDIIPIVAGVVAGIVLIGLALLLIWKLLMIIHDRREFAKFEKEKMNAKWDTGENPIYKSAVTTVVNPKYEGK
Sequence of aiibb3/Fibrinogen (P08514 32-887 limits assumed): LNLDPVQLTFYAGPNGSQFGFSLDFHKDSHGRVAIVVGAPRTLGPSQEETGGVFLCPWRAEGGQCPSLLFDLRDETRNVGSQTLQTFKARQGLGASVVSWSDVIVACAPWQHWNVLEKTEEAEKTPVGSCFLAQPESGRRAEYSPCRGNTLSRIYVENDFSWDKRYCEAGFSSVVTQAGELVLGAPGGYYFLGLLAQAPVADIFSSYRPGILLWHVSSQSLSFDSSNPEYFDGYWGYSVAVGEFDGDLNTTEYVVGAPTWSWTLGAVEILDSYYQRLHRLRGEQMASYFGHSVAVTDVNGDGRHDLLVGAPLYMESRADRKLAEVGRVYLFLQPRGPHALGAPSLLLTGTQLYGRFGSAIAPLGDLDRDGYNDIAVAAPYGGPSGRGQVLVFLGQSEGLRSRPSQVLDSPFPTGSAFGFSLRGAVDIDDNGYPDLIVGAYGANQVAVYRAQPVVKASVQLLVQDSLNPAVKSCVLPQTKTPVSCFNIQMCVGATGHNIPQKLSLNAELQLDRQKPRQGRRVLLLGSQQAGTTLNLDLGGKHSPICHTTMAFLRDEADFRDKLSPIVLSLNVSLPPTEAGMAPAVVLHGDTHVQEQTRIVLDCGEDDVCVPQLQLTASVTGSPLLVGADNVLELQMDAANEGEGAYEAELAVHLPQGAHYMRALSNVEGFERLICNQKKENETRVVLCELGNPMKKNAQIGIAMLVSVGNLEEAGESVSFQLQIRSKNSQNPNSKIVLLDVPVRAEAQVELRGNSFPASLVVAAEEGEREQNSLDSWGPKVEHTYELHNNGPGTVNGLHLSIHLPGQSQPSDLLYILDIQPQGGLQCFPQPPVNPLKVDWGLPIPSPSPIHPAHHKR
Sequence of aiibb3/Fibrinogen (P08514 891-1039 limits assumed): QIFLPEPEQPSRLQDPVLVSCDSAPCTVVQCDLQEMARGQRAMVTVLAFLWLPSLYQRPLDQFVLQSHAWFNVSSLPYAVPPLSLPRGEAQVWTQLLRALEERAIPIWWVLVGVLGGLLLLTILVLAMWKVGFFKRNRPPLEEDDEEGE
Sequence of aiibb3/Fibrinogen (P05106 27-788): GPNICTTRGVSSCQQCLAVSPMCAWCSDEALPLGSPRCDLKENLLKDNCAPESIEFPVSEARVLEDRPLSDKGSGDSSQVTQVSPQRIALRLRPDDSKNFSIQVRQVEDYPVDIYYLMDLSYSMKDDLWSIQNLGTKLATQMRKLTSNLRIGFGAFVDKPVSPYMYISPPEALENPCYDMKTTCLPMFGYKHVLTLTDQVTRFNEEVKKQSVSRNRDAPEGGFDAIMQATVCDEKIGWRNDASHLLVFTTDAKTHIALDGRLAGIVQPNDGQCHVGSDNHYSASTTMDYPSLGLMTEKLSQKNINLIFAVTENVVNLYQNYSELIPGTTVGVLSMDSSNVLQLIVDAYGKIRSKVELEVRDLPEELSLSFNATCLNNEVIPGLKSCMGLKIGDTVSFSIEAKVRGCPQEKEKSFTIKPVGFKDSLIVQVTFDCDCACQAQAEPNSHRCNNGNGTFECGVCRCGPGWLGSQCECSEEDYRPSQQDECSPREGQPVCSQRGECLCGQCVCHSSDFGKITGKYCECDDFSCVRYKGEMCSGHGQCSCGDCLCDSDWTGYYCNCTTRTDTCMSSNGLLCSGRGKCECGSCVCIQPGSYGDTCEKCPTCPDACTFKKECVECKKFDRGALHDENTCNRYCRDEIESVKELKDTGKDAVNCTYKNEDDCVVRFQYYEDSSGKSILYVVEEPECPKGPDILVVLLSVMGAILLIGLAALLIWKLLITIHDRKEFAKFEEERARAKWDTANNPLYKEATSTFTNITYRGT

Q: How did the “Integrin Selectivity EC50 α1b1/Collagen IV” value [1] turn out when `O=C(OCCOCCOCCOC(=O)N(Cc1cccs1)Cc1cccs1)N(Cc1cccs1)Cc1cccs1` [Compound 1, 3-oxo-1-(2-thienyl)-2-(2-thienylmethyl)-4,7,10-trioxa-2-azadodecan-12-yl bis(2-thienylmethyl)carbamate] was run?
A: Not Active

Q: What about the “Integrin Selectivity EC50 aiibb3/Fibrinogen” value [2] of the same compound?
A: Not Active

Q: What about the “cell migration, ICAM-1” value [3] of the same compound?
A: migration enhancement

Q: And the “Average Tumor Volume, Mean” value ([4]; 1 mg/kg BID (IP), Day 7)?
A: 91 mm^3

Q: And the “Average Tumor Volume, Mean” value ([4]; 1 mg/kg BID (IP), Day 10)?
A: 159 mm^3

Q: And the “Average Tumor Volume, Mean” value ([4]; 1 mg/kg BID (IP), Day 12)?
A: 269 mm^3

Q: What about the “Average Tumor Volume, Mean” value ([4]; 1 mg/kg BID (IP), Day 14) of the same compound?
A: 342^‡ mm^3

Q: What about the “Average Tumor Volume, Mean” value ([4]; 1 mg/kg BID (IP), Day 16) of the same compound?
A: 512^‡‡ mm^3

Q: And the “Average Tumor Volume, Mean” value ([4]; 1 mg/kg BID (IP), Day 18)?
A: 689^‡‡ mm^3

Q: And the “Average Tumor Volume, Mean” value ([4]; 1 mg/kg IP QD, Day 7)?
A: 96 mm^3

Q: What about the “Average Tumor Volume, Mean” value ([4]; 1 mg/kg IP QD, Day 10) of the same compound?
A: 193 mm^3

Q: And the “Average Tumor Volume, Mean” value ([4]; 1 mg/kg IP QD, Day 12)?
A: 312 mm^3

Q: What about the “Average Tumor Volume, Mean” value ([4]; 1 mg/kg IP QD, Day 14) of the same compound?
A: 415^† mm^3

Q: And the “Average Tumor Volume, Mean” value ([4]; 1 mg/kg IP QD, Day 16)?
A: 566^†† mm^3

Q: And the “Average Tumor Volume, Mean” value ([4]; 1 mg/kg IP QD, Day 18)?
A: 768^‡ mm^3

Q: And the “inhibition in tumor volume (TGI)” value ([4]; IP BID (1 mg/kg), day 14, p<0.01)?
A: 57.6%

Q: What about the “inhibition in tumor volume (TGI)” value ([4]; IP QD (1 mg/kg), day 14, p<0.05) of the same compound?
A: 46.1%
